According to US8309589B2, “Fluorine-containing organosulfur compound and pesticidal composition comprising the same” (Sumitomo Chemical Company, Limited, priority 2007, dated 2012):

Test system: Blattalla germanica
Experiment: Test Example 4: filter paper with sucrose bait, Blattalla germanica
Assay type: in vivo
Details: 500 ppm, 0.7 ml on filter paper; 2 male imagoes; after 6 days
Method: A formulation of any one of the present compounds (2), (3) and (4) obtained according to Formulation Example 10 was diluted with water so that the active ingredient concentration was 500 ppm to obtain a test solution.
A filter paper having a diameter of 5.5 cm was spread on the bottom of a polyethylene cup having a diameter of 5.5 cm and 0.7 ml of the test solution was added dropwise onto the filter paper. As a bait 30 mg of sucrose was uniformly placed on the filter paper. Into the polyethylene cup, 2 male imagoes of Blattalla germanica were released and the cup was sealed with a lid. After 6 days, the number of surviving Blattalla germanica was examined and the death rate of the pest was calculated.

| Structure (SMILES) | pest death rate [%] |
| --- | --- |
| CC(C)(C)c1cc(CSCCC(F)(F)F)no1 [present compound (2), 5-tert-butyl-3-[(3,3,3-trifluoropropylsulfanyl)methyl]isoxazole] | 100 |
| FC(F)(F)CCSCn1cnc(C(F)(F)F)c1 [present compound (3), 4-trifluoromethyl-1-[(3,3,3-trifluoropropylsulfanyl)methyl]-1H-imidazole] | 100 |
| CC(C)(C)n1cc(CSCCC(F)(F)F)cn1 [present compound (4), 1-tert-butyl-4-[(3,3,3-trifluoropropylsulfanyl)methyl]-1H-pyrazole] | 100 |
